Experimental data taken from publication PMC10967972, “Different Coactivator Recruitment to Human PPARα/δ/γ Ligand-Binding Domains by Eight PPAR Agonists to Treat Nonalcoholic Fatty Liver Disease” (Biomedicines, 2024).
Where two headings read alike, the source gives them in different places.

Assays:
Format in all cases: biochemical
human PPARα-LBD = target: T1, human PPARα-LBD (Homo sapiens, UniProt Q07869); experiment: TR-FRET coactivator recruitment assay, PPARα-LBD; parameters: extent of recruitment of all four coactivators to PPARα-LBD: reference not given here; conditions: for Approximate potency order in the recruitment of four coactivators, PPARα: evaluated based on EC50 values, PGC, PGC1α, SRC, SRC1, TRAP, TRAP220; for EC50: Buffer A
T1 construct: Human PPARα-LBD [amino acids (AAs) 200–468]; made in house
T1 sequence (Q07869 200-468): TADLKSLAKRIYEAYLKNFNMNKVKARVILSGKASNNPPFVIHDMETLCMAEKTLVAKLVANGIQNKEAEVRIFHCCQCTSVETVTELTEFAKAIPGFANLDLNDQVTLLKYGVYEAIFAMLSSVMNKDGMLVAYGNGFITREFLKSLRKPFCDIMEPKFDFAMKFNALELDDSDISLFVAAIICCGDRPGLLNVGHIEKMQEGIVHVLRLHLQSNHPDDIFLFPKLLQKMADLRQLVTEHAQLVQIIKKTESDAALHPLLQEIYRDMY

human PPARδ-LBD = target: T2, human PPARδ-LBD (Homo sapiens, UniProt Q03181); experiment: TR-FRET coactivator recruitment assay, PPARδ-LBD
T2 construct: PPARδ-LBD (AAs 170–441); made in house
T2 sequence (Q03181 170-441): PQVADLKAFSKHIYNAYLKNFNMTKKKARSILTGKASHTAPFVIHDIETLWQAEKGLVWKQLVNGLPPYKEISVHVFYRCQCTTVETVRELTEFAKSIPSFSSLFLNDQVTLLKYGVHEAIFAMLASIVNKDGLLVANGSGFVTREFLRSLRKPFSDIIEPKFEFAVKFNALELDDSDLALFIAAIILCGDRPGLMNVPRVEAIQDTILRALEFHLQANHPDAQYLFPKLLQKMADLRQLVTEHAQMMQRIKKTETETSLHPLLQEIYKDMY

human PPARγ-LBD = target: T3, human PPARγ-LBD (Homo sapiens, UniProt P37231); experiment: TR-FRET coactivator recruitment assay, PPARγ-LBD
T3 construct: PPARγ-LBD (AAs 203–477 in isoform 1); made in house
T3 sequence (P37231 203-477 isoform P37231-2): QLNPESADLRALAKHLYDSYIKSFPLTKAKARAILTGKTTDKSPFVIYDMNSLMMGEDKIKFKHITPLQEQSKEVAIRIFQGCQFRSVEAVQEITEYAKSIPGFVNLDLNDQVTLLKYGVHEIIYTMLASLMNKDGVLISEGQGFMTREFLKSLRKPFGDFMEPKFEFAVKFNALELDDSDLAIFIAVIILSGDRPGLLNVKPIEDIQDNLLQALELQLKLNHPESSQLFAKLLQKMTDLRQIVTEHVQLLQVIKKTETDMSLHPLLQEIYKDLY

[1] = read-out: PPARα CBP % of GW7647 max response
[2] = read-out: PPARα PGC1α % of GW7647 max response
[3] = read-out: PPARα SRC1 % of GW7647 max response
[4] = read-out: PPARα TRAP220 % of GW7647 max response
[5] = read-out: PPARδ CBP % of GW501516 max response
[6] = read-out: PPARδ PGC1α % of GW501516 max response
[7] = read-out: PPARδ SRC1 % of GW501516 max response
[8] = read-out: PPARδ TRAP220 % of GW501516 max response
[9] = read-out: PPARγ CBP % of GW1929 max response
[10] = read-out: PPARγ PGC1α % of GW1929 max response
[11] = read-out: PPARγ SRC1 % of GW1929 max response
[12] = read-out: PPARγ TRAP220 % of GW1929 max response
[13] = CBP peptide recruitment, read-out: PPARα CBP EC50
[14] = PGC1α peptide recruitment, read-out: PPARα PGC1α EC50
[15] = SRC1 peptide recruitment, read-out: PPARα SRC1 EC50
[16] = TRAP220 peptide recruitment, read-out: PPARα TRAP220 EC50
[17] = evaluated based on EC50 values, PGC, PGC1α, SRC, SRC1, TRAP, TRAP220
[18] = CBP peptide recruitment, Buffer A, read-out: PPARγ CBP EC50
[19] = PGC1α peptide recruitment, Buffer A, read-out: PPARγ PGC1α EC50
[20] = SRC1 peptide recruitment, Buffer A, read-out: PPARγ SRC1 EC50
[21] = TRAP220 peptide recruitment, Buffer A, read-out: PPARγ TRAP220 EC50
[22] = CBP peptide recruitment, Buffer A, read-out: PPARδ CBP EC50
[23] = PGC1α peptide recruitment, Buffer A, read-out: PPARδ PGC1α EC50
[24] = SRC1 peptide recruitment, Buffer A, read-out: PPARδ SRC1 EC50
[25] = TRAP220 peptide recruitment, Buffer A, read-out: PPARδ TRAP220 EC50

Molecule | Approximate potency order in the recruitment of four coactivators, PPARα (human PPARα-LBD) | Emax (human PPARα-LBD; [1]) [%] | Emax (human PPARα-LBD; [2]) [%] | Emax (human PPARα-LBD; [3]) [%] | Emax (human PPARα-LBD; [4]) [%] | Emax (human PPARδ-LBD; [5]) [%] | Emax (human PPARδ-LBD; [6]) [%] | Emax (human PPARδ-LBD; [7]) [%] | Emax (human PPARδ-LBD; [8]) [%] | Emax (human PPARγ-LBD; [9]) [%] | Emax (human PPARγ-LBD; [10]) [%] | Emax (human PPARγ-LBD; [11]) [%] | Emax (human PPARγ-LBD; [12]) [%] | EC50 (human PPARα-LBD; [13]) [µM] | EC50 (human PPARα-LBD; [14]) [µM] | EC50 (human PPARα-LBD; [15]) [µM] | EC50 (human PPARα-LBD; [16]) [µM] | Approximate potency order in the recruitment of four coactivators, PPARδ (human PPARδ-LBD; [17]) | recruitment of coactivators to PPARδ-LBD (in words) (human PPARδ-LBD; four coactivator peptides) | Approximate potency order in the recruitment of four coactivators, PPARγ (human PPARγ-LBD; [17]) | also measured
CC(C)(Oc1ccc(CCNC(=O)c2ccc(Cl)cc2)cc1)C(=O)O [Bezafibrate, bezafibrate] | CBP>PGC=TRAP>SRC | 79.2 | 74.5 | 72.4 | 76.4 | 64.6 | 90.3 | 50 | 85.8 | 68.7 | 68.6 | 34 | 55.7 | – | – | – | – | – | – | – | extent of recruitment of all four coactivators to PPARα-LBD (human PPARα-LBD): 72.4–79.2%; recruitment of coactivators to PPARα-LBD (in words) (human PPARα-LBD; four coactivator peptides): recruited all four coactivators; Approximate potency order in the recruitment of four coactivators, PPARδ (human PPARδ-LBD): TRAP>PGC>CBP>SRC; recruitment of coactivators to PPARδ-LBD (in words) (human PPARδ-LBD): recruited all four coactivators; EC50 (human PPARδ-LBD; PPARδ CBP EC50): 58.5 µM; EC50 (human PPARδ-LBD; PPARδ TRAP220 EC50): 24.5 µM; EC50 (human PPARδ-LBD; read-out: PPARδ PGC1α EC50): 35.8 µM; EC50 (human PPARδ-LBD; read-out: PPARδ SRC1 EC50): 101 µM; Approximate potency order in the recruitment of four coactivators, PPARγ (human PPARγ-LBD): PGC=CBP=TRAP>SRC; recruitment of coactivators to PPARγ-LBD (in words) (human PPARγ-LBD): recruited all four coactivators; EC50 (human PPARγ-LBD; PPARγ CBP EC50): 36.3 µM; EC50 (human PPARγ-LBD; PPARγ PGC1α EC50): 41.8 µM; EC50 (human PPARγ-LBD; PPARγ SRC1 EC50): 108 µM; EC50 (human PPARγ-LBD; PPARγ TRAP220 EC50): 24.5 µM
CSc1ccc(C(=O)/C=C/c2cc(C)c(OC(C)(C)C(=O)O)c(C)c2)cc1 [Elafibranor, elafibranor] | CBP>PGC=SRC=TRAP | 61.6 | 45.6 | 41.6 | 36.2 | 30.8 | 68.5 | 19.9 | 44 | 36 | 30.8 | 9.11 | 29 | 2.77 | 6.44 | 4.98 | 4.28 | PGC>TRAP>CBP>SRC | effective | PGC=CBP=TRAP>SRC | EC50 (human PPARγ-LBD; [18]): > 10 µM; EC50 (human PPARγ-LBD; [19]): > 10 µM; EC50 (human PPARγ-LBD; [20]): > 30 µM; EC50 (human PPARγ-LBD; [21]): > 10 µM
CC(C)(Oc1ccc(C(=O)c2ccc(Cl)cc2)cc1)C(=O)O [Fenofibric acid, fenofibric acid] | CBP>TRAP>PGC>SRC | 80.8 | 36.8 | 78.3 | 86 | 0.45 | 0.16 | 0.6 | 2.76 | 73 | 82.5 | 42 | 64.8 | 3.41 | 8.02 | 11.1 | 7.33 | No activation | – | PGC=CBP=TRAP>SRC | EC50 (human PPARδ-LBD; [22]): > 500 µM; EC50 (human PPARδ-LBD; [23]): > 500 µM; EC50 (human PPARδ-LBD; [24]): > 500 µM; EC50 (human PPARδ-LBD; [25]): > 500 µM
O=C(O)CCCc1cc2cc(Cl)ccc2n1S(=O)(=O)c1ccc2ncsc2c1 [Lanifibranor, lanifibranor] | CBP>TRAP>PGC=SRC | 71.7 | 41.8 | 49.3 | 64.7 | 101 | 103 | 57.5 | 86.5 | 83.3 | 70.5 | 46.1 | 60.4 | 4.02 | 9.95 | 10.4 | 7.31 | PGC>CBP>TRAP>SRC | effective | CBP>PGC>TRAP>SRC | EC50 (human PPARδ-LBD; [22]): 3.72 µM; EC50 (human PPARδ-LBD; [23]): 2.46 µM; EC50 (human PPARδ-LBD; [24]): 6.97 µM; EC50 (human PPARδ-LBD; [25]): 4.41 µM; EC50 (human PPARγ-LBD; [18]): 2.64 µM; EC50 (human PPARγ-LBD; [19]): 4.31 µM; EC50 (human PPARγ-LBD; [20]): 7.69 µM; EC50 (human PPARγ-LBD; [21]): 5.07 µM
CCc1ccc(CCOc2ccc(CC3SC(=O)NC3=O)cc2)nc1 (stereo not drawn) [Pioglitazone, pioglitazone] | CBP>>>PGC=SRC=TRAP | 34.9 | 13.9 | 8.37 | 3.67 | 2.47 | 4.53 | 1.19 | 1.55 | – | – | – | – | – | – | – | – | No activation | – | – | –
GW1929 | – | – | – | – | – | – | – | – | – | – | – | – | – | – | – | – | – | – | – | – | PPARγ CBP maximal fold-induction of basal levels (human PPARγ-LBD; CBP peptide, fold over no ligand): 14.7 ×; PPARγ PGC1α maximal fold-induction of basal levels (human PPARγ-LBD; PGC1α peptide, fold over no ligand): 11.9 ×; PPARγ SRC1 maximal fold-induction of basal levels (human PPARγ-LBD; SRC1 peptide, fold over no ligand): 12.6 ×; PPARγ TRAP220 maximal fold-induction of basal levels (human PPARγ-LBD; TRAP220 peptide, fold over no ligand): 15.5 ×; maximal fold-induction from basal (no ligand) levels on the four coactivators, PPARγ (human PPARγ-LBD; range over PGC1α, CBP, SRC1, TRAP220, Buffer A): 11.9–15.5 ×
